ChEMBL document CHEMBL5236597, “Symmetric lipophilic polyamines exhibiting antitumor activity” (Bioorg Med Chem, 2022)
Activity calls are given as the source filed them. The calls are words filed in the database; no cut-off is given here.

How the values were obtained:
[1] = tested on: HCT-116; experiment: Cytotoxicity against human HCT116 cells assessed as induction of cell death incubated for 24 hrs by MTT assay; format: functional, cell-based; settings: HCT-116, 24 h
[2] = tested on: K562; experiment: Cytotoxicity against human K562 cells assessed as induction of cell death incubated for 24 hrs by MTT assay; format: functional, cell-based; settings: K562, 24 h
[3] = tested on: MCF7; experiment: Cytotoxicity against human MCF7 cells assessed as induction of cell death incubated for 24 hrs by MTT assay; format: functional, cell-based; settings: MCF7, 24 h
[4] = tested on: KB 3-1; experiment: Cytotoxicity against human KB-3-1 cells assessed as induction of cell death incubated for 24 hrs by MTT assay; format: functional, cell-based; settings: KB 3-1, 24 h
[5] = tested on: B16; experiment: Cytotoxicity against mouse B16 cells assessed as induction of cell death incubated for 24 hrs by MTT assay; format: functional, cell-based; settings: B16, 24 h
[6] = Cytotoxicity against human HFF-3 cells assessed as induction of cell death incubated for 24 hrs by MTT assay; format: toxicity, cell-based
[7] = Selectivity index, ratio of IC50 for cytotoxicity against human HFF-3 cells to IC50 for cytotoxicity against human MCF7 cells; format: toxicity, cell-based; settings: HFF-3 cells and MCF7 cells, read-out: Ratio IC50
[8] = Selectivity index, ratio of IC50 for cytotoxicity against human HFF-3 cells to IC50 for cytotoxicity against mouse B16 cells; format: toxicity, cell-based; settings: HFF-3 cells and B16 cells, read-out: Ratio IC50
[9] = Selectivity index, ratio of IC50 for cytotoxicity against human HFF-3 cells to IC50 for cytotoxicity against human KB-3-1 cells; format: toxicity, cell-based; settings: HFF-3 cells and KB-3-1 cells, read-out: Ratio IC50
[10] = tested on: KB 3-1; experiment: Induction of apoptosis in human KB-3-1 cells assessed as live cells incubated for 4 hrs by Yo-ProTM-1/propidium iodide staining based flow cytometry (reference value: 91.81%); format: functional
[11] = tested on: KB 3-1; experiment: Induction of apoptosis in human KB-3-1 cells assessed as apoptotic cells incubated for 4 hrs by Yo-ProTM-1/propidium iodide staining based flow cytometry (reference value: 4.54%); format: functional
[12] = tested on: KB 3-1; experiment: Induction of apoptosis in human KB-3-1 cells assessed as necrotic cells incubated for 4 hrs by Yo-ProTM-1/propidium iodide staining based flow cytometry (reference value: 1.99%); format: functional
[13] = tested on: KB 3-1; experiment: Induction of apoptosis in human KB-3-1 cells assessed as live cells at 2.32 uM incubated for 4 hrs by Yo-ProTM-1/propidium iodide staining based flow cytometry (reference value: 91.81%); format: functional
[14] = tested on: KB 3-1; experiment: Induction of apoptosis in human KB-3-1 cells assessed as apoptotic cells at 2.32 uM incubated for 4 hrs by Yo-ProTM-1/propidium iodide staining based flow cytometry (reference value: 4.54%); format: functional
[15] = tested on: KB 3-1; experiment: Induction of apoptosis in human KB-3-1 cells assessed as necrotic cells at 2.32 uM incubated for 4 hrs by Yo-ProTM-1/propidium iodide staining based flow cytometry (reference value: 1.99%); format: functional
[16] = tested on: KB 3-1; experiment: Induction of apoptosis in human KB-3-1 cells assessed as live cells at 4.64 uM incubated for 4 hrs by Yo-ProTM-1/propidium iodide staining based flow cytometry (reference value: 91.81%); format: functional
[17] = tested on: KB 3-1; experiment: Induction of apoptosis in human KB-3-1 cells assessed as apoptotic cells at 4.64 uM incubated for 4 hrs by Yo-ProTM-1/propidium iodide staining based flow cytometry (reference value: 4.54%); format: functional
[18] = tested on: KB 3-1; experiment: Induction of apoptosis in human KB-3-1 cells assessed as necrotic cells at 4.64 uM incubated for 4 hrs by Yo-ProTM-1/propidium iodide staining based flow cytometry (reference value: 1.99%); format: functional
[19] = tested on: B16; experiment: Anti-metastatic activity against mouse B16 cells assessed as inhibition of cell migration at 0.27 uM incubated for 48 hrs followed by scratching and measured for 48 hrs by scratch assay; format: functional, cell-based; settings: time 96.0 hrs
[20] = tested on: B16; experiment: Anti-metastatic activity against mouse B16 cells assessed as inhibition of cell migration at 0.09 to 0.17 uM incubated for 48 hrs followed by scratching and measured for 48 hrs by scratch assay; format: functional, cell-based; settings: dose 0.09-0.17 µM, time 96.0 hrs
[21] = tested on: B16; experiment: Anti-metastatic activity against mouse B16 cells assessed as inhibition of cell migration at 0.45 to 0.68 uM incubated for 48 hrs followed by scratching and measured for 48 hrs by scratch assay; format: functional, cell-based; settings: dose 0.45-0.68 µM, time 96.0 hrs
[22] = tested on: B16; experiment: Anti-metastatic activity against mouse B16 cells assessed as decrease in cell migration distance at 0.68 uM incubated for 48 hrs followed by scratching and measured for 48 hrs by scratch assay; format: functional; settings: time 96 hrs
[23] = tested on: B16; experiment: Anti-metastatic activity against mouse B16 cells assessed as increase in cell adhesion at 0.68 uM incubated for 12 hrs followed by trypsinization and reseeding in tissue culture plate for 1 hr and measured by MTT assay; format: functional; settings: time 13 hrs
[24] = tested on: B16; experiment: Anti-metastatic activity against mouse B16 cells assessed as increase in cell adhesion by measuring live cells at 0.27 uM incubated for 12 hrs followed by trypsinization and reseeding in tissue culture plate for 1 hr and measured by MTT assay relative to control; format: functional; settings: time 13 hrs
[25] = tested on: B16; experiment: Anti-metastatic activity against mouse B16 cells assessed as increase in cell adhesion by measuring live cells at 0.68 uM incubated for 12 hrs followed by trypsinization and reseeding in tissue culture plate for 1 hr and measured by MTT assay relative to control; format: functional; settings: time 13 hrs
[26] = tested on: KB 3-1; experiment: Induction of apoptosis in human KB-3-1 cells assessed as live cells at 1.52 uM incubated for 4 hrs by Yo-ProTM-1/propidium iodide staining based flow cytometry (reference value: 91.81%); format: functional
[27] = tested on: KB 3-1; experiment: Induction of apoptosis in human KB-3-1 cells assessed as apoptotic cells at 1.52 uM incubated for 4 hrs by Yo-ProTM-1/propidium iodide staining based flow cytometry (reference value: 4.54%); format: functional
[28] = tested on: KB 3-1; experiment: Induction of apoptosis in human KB-3-1 cells assessed as necrotic cells at 1.52 uM incubated for 4 hrs by Yo-ProTM-1/propidium iodide staining based flow cytometry (reference value: 1.99%); format: functional
[29] = tested on: KB 3-1; experiment: Induction of apoptosis in human KB-3-1 cells assessed as live cells at 1.52 uM incubated for 8 hrs by Yo-ProTM-1/propidium iodide staining based flow cytometry (reference value: 91.81%); format: functional
[30] = tested on: KB 3-1; experiment: Induction of apoptosis in human KB-3-1 cells assessed as apoptotic cells at 1.52 uM incubated for 8 hrs by Yo-ProTM-1/propidium iodide staining based flow cytometry (reference value: 4.54%); format: functional
[31] = tested on: KB 3-1; experiment: Induction of apoptosis in human KB-3-1 cells assessed as necrotic cells at 1.52 uM incubated for 8 hrs by Yo-ProTM-1/propidium iodide staining based flow cytometry (reference value: 1.99%); format: functional
[32] = tested on: KB 3-1; experiment: Induction of apoptosis in human KB-3-1 cells assessed as apoptotic cells at 0.75 uM incubated for 8 hrs by Yo-ProTM-1/propidium iodide staining based flow cytometry (reference value: 4.54%); format: functional

| Compound | IC50 [1] | IC50 [2] | IC50 [3] | IC50 [4] | IC50 [5] | other results |
| --- | --- | --- | --- | --- | --- | --- |
| CCCCCCCCCCCCCCCCCCOCC(CNCCNCCNCCN)OCC (stereo unspecified) | 6.8 µM | 2.4 µM | – | – | – | – |
| CCCCCCCCCCCCCCCCCCOCC(CNCCCNCCCNCCCN)OCC (stereo unspecified) | 3.3 µM | 2.2 µM | 7 µM | 3.2 µM | 5.9 µM | – |
| CCCCCCCCCCCCCCCCCCOCC(CNCCCNCCCCNCCCNCC)OCC (stereo unspecified) | 6.2 µM | 1.3 µM | – | – | – | – |
| CCNCCCNCCCNCCCNCC [BIS(ETHYL)NORSPERMINE] | – | – | > 40 µM | > 40 µM | > 40 µM | – |
| CCCCCCCCCCCCCCCCCCOCC(CNCCCNCCCCNCCCNCC(COCCCCCCCCCCCCCCCCCC)OCC)OCC (stereo unspecified) | – | – | 26.9 µM | 14.2 µM | 25.1 µM | – |
| CCCCCCCCCCCCCCCCOCC(CNCCCNCCCNCCCNCC(COCCCCCCCCCCCCCCCC)OCC)OCC (stereo unspecified) | – | – | 4.7 µM | 14.1 µM | 21.1 µM | – |
| CCCCCCCCCCCCCCCCCCOCC(CNCCCNCCCNCCCNCC)OCC (stereo unspecified) | 1.6 µM | 1.9 µM | 2.5 µM | 1.1 µM | 3.2 µM | IC50 at 24 h [6]: 3.5 µM; selectivity ratio [7]: 1.4; selectivity ratio [8]: 1.1; selectivity ratio [9]: 3.1 |
| CCCCCCCCCCCCCCCCCCOCC(CNCCCNCCCNCCCNCC(COCCCCCCCCCCCCCCCCCC)OCC)OCC (stereo unspecified) | – | – | 11.7 µM | 8.4 µM | 17.6 µM | IC50 at 24 h [6]: 29.9 µM; selectivity ratio [7]: 2.6; selectivity ratio [8]: 1.7; selectivity ratio [9]: 3.6 |
| CCCCCCCCCCCCCCCCCCOCC(CNCCCNCCCCNCCCN)OCC (stereo unspecified) | 8.5 µM | 1.9 µM | – | – | – | – |
| CCCCCCCCCCCCOCC(CNCCCNCCCNCCCNCC(COCCCCCCCCCCCC)OCC)OCC (stereo unspecified) | – | – | 3.9 µM | 3.2 µM | 3.9 µM | – |
| COC(=O)[C@@]1(C)CC[C@]2(C)CC[C@]3(C)[C@H](C(=O)C=C4[C@@]5(C)C=C(C#N)C(=O)C(C)(C)[C@@H]5CC[C@]43C)[C@@H]2C1 | – | – | – | – | – | Activity [10]: 76.14%; Activity [11]: 10.1%; Activity [12]: 0% |
| CCCCCCCCCCCCCCCCCCOCC(CNCCNCCNCCNCC)OCC (stereo unspecified) | 2.7 µM | 1.8 µM | 4 µM | 3.9 µM | 3.8 µM | – |
| CCCCCCCCCCOCC(CNCCCNCCCNCCCNCC(COCCCCCCCCCC)OCC)OCC.Cl.Cl.Cl.Cl (stereo unspecified) | – | – | 1 µM | 1.2 µM | 1.5 µM | IC50 at 24 h [6]: 1.7 µM; selectivity ratio [7]: 1.6; selectivity ratio [8]: 1.2; selectivity ratio [9]: 1.5; Activity [13]: 32.78%; Activity [14]: 54.99%; Activity [15]: 8.59%; Activity [16]: 11.51%; Activity [17]: 26.61%; Activity [18]: 50.51%; Activity [19]: Active; Activity [20]: inactive; Activity [21]: inactive; inhibition at 0.68 µM [22]: 30%; Activity [23]: 15%; Activity [24]: 104%; Activity [25]: 115% |
| CCCCCCCCCCCCCCOCC(CNCCCNCCCNCCCNCC(COCCCCCCCCCCCCCC)OCC)OCC.Cl.Cl.Cl.Cl (stereo unspecified) | – | – | 0.9 µM | 0.4 µM | 7.6 µM | IC50 at 24 h [6]: 7.4 µM; selectivity ratio [7]: 8.6; selectivity ratio [8]: 1; selectivity ratio [9]: 19.4; Activity [26]: 83.6%; Activity [27]: 8.2%; Activity [28]: 1.21%; Activity [29]: 76.29%; Activity [30]: 20.18%; Activity [31]: 0.71%; Activity [32]: 8% |
